In ChEMBL document CHEMBL5614399, “Design and Assessment of First-Generation Heterobifunctional PPARα/STING Modulators” (ACS Med Chem Lett, 2024):
Calls of active or inactive are those of the source. No cut-off for these calls is given here.

How the values were obtained:
661W [1] = experiment: Cytoprotective activity against 4HNE-induced mouse 661W cells assessed as reduction in ROS level at 1 uM preincubated for 2 hrs followed by 4-HNE addition and measured after 24 hrs in presence of A229 by CM-H2DCFDA staining based fluorescence analysis; format: functional, cell-based; conditions: time 26.0 hrs
661W [2] = experiment: Cytoprotective activity against 4HNE-induced mouse 661W cells assessed as reduction in ROS level at 0.5 uM preincubated for 2 hrs followed by 4-HNE addition and measured after 24 hrs in presence of A229 by CM-H2DCFDA staining based fluorescence analysis; format: functional, cell-based; conditions: time 26.0 hrs

For `O=C(Nc1ccc(O)c(NS(=O)(=O)c2ccc(F)cc2)c1)c1ccc(-c2ccccc2)cc1`, the Activity (661W [1]) was “Active” and the Activity (661W [2]) was “Active”.
